Data reported in ChEMBL document CHEMBL4507273 (2021).

How the values were obtained:
[1] = molecular target: Serine/threonine-protein kinase TAO2 (Homo sapiens) (UniProt Q9UL54); conditions: Compound concentration 1000.0 nM
[2] = system: Mast/stem cell growth factor receptor Kit (Homo sapiens), P10721 [V559D,T670I]; conditions: Compound concentration 1000.0 nM
[3] = molecular target: Mitogen-activated protein kinase kinase kinase 3 (Homo sapiens) (UniProt Q99759); conditions: Compound concentration 1000.0 nM
[4] = molecular target: Casein kinase II subunit alpha (Homo sapiens) (UniProt P68400); conditions: Compound concentration 1000.0 nM
[5] = molecular target: Serine/threonine-protein kinase pim-2 (Homo sapiens) (UniProt Q9P1W9); conditions: Compound concentration 1000.0 nM
[6] = molecular target: Tyrosine-protein kinase Fes/Fps (Homo sapiens) (UniProt P07332); conditions: Compound concentration 1000.0 nM
Tyrosine-protein kinase Fes/Fps (Homo sapiens), sequence (P07332 whole entry): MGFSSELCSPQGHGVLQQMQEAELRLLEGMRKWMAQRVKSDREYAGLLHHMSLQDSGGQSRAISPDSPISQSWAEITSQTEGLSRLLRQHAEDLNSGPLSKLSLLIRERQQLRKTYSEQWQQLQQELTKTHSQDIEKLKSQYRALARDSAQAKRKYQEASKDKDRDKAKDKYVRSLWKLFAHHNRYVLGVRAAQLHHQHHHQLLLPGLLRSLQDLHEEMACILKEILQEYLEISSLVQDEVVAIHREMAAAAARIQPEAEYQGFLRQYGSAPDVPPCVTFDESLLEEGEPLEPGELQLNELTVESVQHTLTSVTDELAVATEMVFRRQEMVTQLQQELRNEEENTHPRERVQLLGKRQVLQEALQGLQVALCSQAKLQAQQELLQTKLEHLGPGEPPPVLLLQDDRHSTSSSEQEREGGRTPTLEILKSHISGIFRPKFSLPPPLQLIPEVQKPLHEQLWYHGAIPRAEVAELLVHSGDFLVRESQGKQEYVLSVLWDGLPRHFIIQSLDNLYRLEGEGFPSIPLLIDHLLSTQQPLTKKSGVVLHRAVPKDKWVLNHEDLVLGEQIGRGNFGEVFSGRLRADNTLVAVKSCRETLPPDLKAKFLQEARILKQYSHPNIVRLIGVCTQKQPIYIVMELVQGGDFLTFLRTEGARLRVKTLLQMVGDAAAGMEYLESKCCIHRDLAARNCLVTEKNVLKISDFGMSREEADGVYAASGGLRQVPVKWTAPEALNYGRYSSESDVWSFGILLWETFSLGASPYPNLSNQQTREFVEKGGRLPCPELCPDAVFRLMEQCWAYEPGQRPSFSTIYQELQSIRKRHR

[7] = molecular target: Homeodomain-interacting protein kinase 3 (Homo sapiens) (UniProt Q9H422); conditions: Compound concentration 1000.0 nM
[8] = molecular target: Casein kinase I isoform gamma-1 (Homo sapiens) (UniProt Q9HCP0); conditions: Compound concentration 1000.0 nM
Casein kinase I isoform gamma-1 (Homo sapiens), sequence (Q9HCP0 whole entry, looked up, canonical isoform): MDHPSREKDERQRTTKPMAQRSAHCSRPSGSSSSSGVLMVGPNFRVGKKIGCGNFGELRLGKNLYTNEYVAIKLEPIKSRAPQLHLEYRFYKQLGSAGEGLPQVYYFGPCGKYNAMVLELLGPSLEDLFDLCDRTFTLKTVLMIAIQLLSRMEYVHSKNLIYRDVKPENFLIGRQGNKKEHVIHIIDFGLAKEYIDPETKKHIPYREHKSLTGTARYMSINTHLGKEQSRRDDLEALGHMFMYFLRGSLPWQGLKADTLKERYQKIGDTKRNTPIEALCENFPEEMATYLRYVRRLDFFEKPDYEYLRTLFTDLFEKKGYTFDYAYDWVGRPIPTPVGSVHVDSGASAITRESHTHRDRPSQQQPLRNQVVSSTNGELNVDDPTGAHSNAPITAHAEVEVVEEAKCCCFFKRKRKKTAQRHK

[9] = molecular target: Serine/threonine-protein kinase D3 (Homo sapiens) (UniProt O94806); conditions: Compound concentration 1000.0 nM
[10] = molecular target: Leucine-rich repeat serine/threonine-protein kinase 2 (Homo sapiens) (UniProt Q5S007); conditions: Compound concentration 1000.0 nM
[11] = system: Epidermal growth factor receptor (Homo sapiens), P00533 [L858R]; conditions: Compound concentration 1000.0 nM
[12] = molecular target: Tyrosine-protein kinase HCK (Homo sapiens) (UniProt P08631); conditions: Compound concentration 1000.0 nM
[13] = molecular target: Inhibitor of nuclear factor kappa-B kinase subunit alpha (Homo sapiens) (UniProt O15111); conditions: Compound concentration 1000.0 nM
[14] = molecular target: Mitogen-activated protein kinase 14 (Homo sapiens) (UniProt Q16539); conditions: Compound concentration 1000.0 nM
Mitogen-activated protein kinase 14 (Homo sapiens), sequence (Q16539 whole entry): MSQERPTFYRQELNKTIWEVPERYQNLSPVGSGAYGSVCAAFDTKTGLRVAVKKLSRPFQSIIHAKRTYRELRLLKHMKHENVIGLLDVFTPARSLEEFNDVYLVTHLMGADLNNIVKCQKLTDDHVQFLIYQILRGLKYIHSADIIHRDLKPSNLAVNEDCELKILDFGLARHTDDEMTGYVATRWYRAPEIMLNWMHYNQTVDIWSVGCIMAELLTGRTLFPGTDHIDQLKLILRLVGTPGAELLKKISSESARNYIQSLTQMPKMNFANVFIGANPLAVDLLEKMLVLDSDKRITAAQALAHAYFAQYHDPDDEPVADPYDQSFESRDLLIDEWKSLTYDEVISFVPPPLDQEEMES

[15] = molecular target: Ribosomal protein S6 kinase beta-1 (Homo sapiens) (UniProt P23443); conditions: Compound concentration 1000.0 nM
[16] = molecular target: Serine/threonine-protein kinase WNK1 (Homo sapiens) (UniProt Q9H4A3); conditions: Compound concentration 1000.0 nM
[17] = molecular target: Citron Rho-interacting kinase (Homo sapiens) (UniProt O14578); conditions: Compound concentration 1000.0 nM
[18] = molecular target: Ankyrin repeat and protein kinase domain-containing protein 1 (Homo sapiens) (UniProt Q8NFD2); conditions: Compound concentration 1000.0 nM
[19] = molecular target: Insulin receptor-related protein (Homo sapiens) (UniProt P14616); conditions: Compound concentration 1000.0 nM
[20] = molecular target: Mitogen-activated protein kinase kinase kinase 4 (Homo sapiens) (UniProt Q9Y6R4); conditions: Compound concentration 1000.0 nM
[21] = molecular target: SRSF protein kinase 2 (Homo sapiens) (UniProt P78362); conditions: Compound concentration 1000.0 nM
[22] = molecular target: Serine/threonine-protein kinase MRCK gamma (Homo sapiens) (UniProt Q6DT37); conditions: Compound concentration 1000.0 nM
[23] = molecular target: Serine/threonine-protein kinase Nek3 (Homo sapiens) (UniProt P51956); conditions: Compound concentration 1000.0 nM
[24] = molecular target: Myosin light chain kinase 2, skeletal/cardiac muscle (Homo sapiens) (UniProt Q9H1R3); conditions: Compound concentration 1000.0 nM
Myosin light chain kinase 2, skeletal/cardiac muscle (Homo sapiens), sequence (Q9H1R3 whole entry): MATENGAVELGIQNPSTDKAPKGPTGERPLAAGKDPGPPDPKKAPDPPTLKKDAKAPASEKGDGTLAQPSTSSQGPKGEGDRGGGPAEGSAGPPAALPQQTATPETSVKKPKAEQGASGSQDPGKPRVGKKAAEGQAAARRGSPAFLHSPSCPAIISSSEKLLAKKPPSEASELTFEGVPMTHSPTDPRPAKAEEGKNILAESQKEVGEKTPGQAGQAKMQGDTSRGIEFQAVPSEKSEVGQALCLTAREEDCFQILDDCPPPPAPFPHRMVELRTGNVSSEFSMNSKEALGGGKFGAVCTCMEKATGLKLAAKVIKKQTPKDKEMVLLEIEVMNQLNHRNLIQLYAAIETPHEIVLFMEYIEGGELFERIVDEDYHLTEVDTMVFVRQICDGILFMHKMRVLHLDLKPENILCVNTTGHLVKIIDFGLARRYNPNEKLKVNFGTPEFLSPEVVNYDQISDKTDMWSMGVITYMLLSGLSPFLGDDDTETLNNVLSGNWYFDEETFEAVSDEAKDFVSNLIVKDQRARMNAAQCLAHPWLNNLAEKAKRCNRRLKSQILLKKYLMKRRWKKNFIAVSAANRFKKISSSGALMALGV

[25] = molecular target: Bone morphogenetic protein receptor type-1B (Homo sapiens) (UniProt O00238); conditions: Compound concentration 1000.0 nM
[26] = molecular target: Ribosomal protein S6 kinase alpha-4 (Homo sapiens) (UniProt O75676); conditions: Compound concentration 1000.0 nM
[27] = molecular target: Cyclin-dependent kinase 16 (Homo sapiens) (UniProt Q00536); conditions: Compound concentration 1000.0 nM
[28] = molecular target: GABA-A receptor; anion channel (Rattus norvegicus) (UniProt O09028+P15431+P18506+P18508+P19969+P20236+P23574+P23576+P28471+P28473+P30191+P62813+P63079+P63138+Q91ZM7+Q9ES14); conditions: Compound concentration 10.0 uM
[29] = molecular target: Serine/threonine-protein kinase STK11 (Homo sapiens) (UniProt Q15831); conditions: Compound concentration 1000.0 nM
[30] = molecular target: Wee1-like protein kinase (Homo sapiens) (UniProt P30291); conditions: Compound concentration 1000.0 nM
[31] = molecular target: Epidermal growth factor receptor (Homo sapiens, UniProt P00533); conditions: Compound concentration 1000.0 nM
[32] = molecular target: Mitogen-activated protein kinase 15 (Homo sapiens) (UniProt Q8TD08); conditions: Compound concentration 1000.0 nM
[33] = molecular target: Beta-adrenergic receptor kinase 1 (Homo sapiens) (UniProt P25098); conditions: Compound concentration 1000.0 nM
[34] = molecular target: Phosphatidylinositol 4-phosphate 5-kinase type-1 alpha (Homo sapiens) (UniProt Q99755); conditions: Compound concentration 1000.0 nM
[35] = molecular target: Eukaryotic translation initiation factor 2-alpha kinase 1 (Homo sapiens) (UniProt Q9BQI3); conditions: Compound concentration 1000.0 nM
[36] = molecular target: Serine/threonine-protein kinase SIK3 (Homo sapiens) (UniProt Q9Y2K2); conditions: Compound concentration 1000.0 nM
[37] = molecular target: Activated CDC42 kinase 1 (Homo sapiens) (UniProt Q07912); conditions: Compound concentration 1000.0 nM
[38] = system: Phosphatidylinositol 4,5-bisphosphate 3-kinase catalytic subunit alpha isoform (Homo sapiens), P42336 [M1043I]; conditions: Compound concentration 1000.0 nM
[39] = molecular target: Epithelial discoidin domain-containing receptor 1 (Homo sapiens) (UniProt Q08345); conditions: Compound concentration 1000.0 nM
[40] = molecular target: Cyclin-dependent kinase-like 3 (Homo sapiens) (UniProt Q8IVW4); conditions: Compound concentration 1000.0 nM
[41] = molecular target: Fibroblast growth factor receptor 3 (Homo sapiens) (UniProt P22607); conditions: Compound concentration 1000.0 nM
[42] = molecular target: SNF-related serine/threonine-protein kinase (Homo sapiens) (UniProt Q9NRH2); conditions: Compound concentration 1000.0 nM
[43] = molecular target: Death-associated protein kinase 2 (Homo sapiens) (UniProt Q9UIK4); conditions: Compound concentration 1000.0 nM
Death-associated protein kinase 2 (Homo sapiens), sequence (Q9UIK4 whole entry, looked up, canonical isoform): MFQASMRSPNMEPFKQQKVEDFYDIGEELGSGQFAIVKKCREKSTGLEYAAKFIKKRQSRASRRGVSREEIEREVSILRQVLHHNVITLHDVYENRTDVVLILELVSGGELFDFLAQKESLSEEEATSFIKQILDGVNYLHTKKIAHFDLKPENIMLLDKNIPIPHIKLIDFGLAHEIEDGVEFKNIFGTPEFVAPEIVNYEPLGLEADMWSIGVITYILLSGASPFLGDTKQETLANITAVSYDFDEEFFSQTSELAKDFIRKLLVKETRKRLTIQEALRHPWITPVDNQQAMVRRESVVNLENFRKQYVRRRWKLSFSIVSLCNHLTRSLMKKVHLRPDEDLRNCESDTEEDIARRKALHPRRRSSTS

[44] = molecular target: Phosphatidylinositol 4,5-bisphosphate 3-kinase catalytic subunit alpha isoform (Homo sapiens) (UniProt P42336); conditions: Compound concentration 1000.0 nM

Mast/stem cell growth factor receptor Kit (Homo sapiens), P10721 [V559D,T670I], sequence (P10721 whole entry V559D/T670I): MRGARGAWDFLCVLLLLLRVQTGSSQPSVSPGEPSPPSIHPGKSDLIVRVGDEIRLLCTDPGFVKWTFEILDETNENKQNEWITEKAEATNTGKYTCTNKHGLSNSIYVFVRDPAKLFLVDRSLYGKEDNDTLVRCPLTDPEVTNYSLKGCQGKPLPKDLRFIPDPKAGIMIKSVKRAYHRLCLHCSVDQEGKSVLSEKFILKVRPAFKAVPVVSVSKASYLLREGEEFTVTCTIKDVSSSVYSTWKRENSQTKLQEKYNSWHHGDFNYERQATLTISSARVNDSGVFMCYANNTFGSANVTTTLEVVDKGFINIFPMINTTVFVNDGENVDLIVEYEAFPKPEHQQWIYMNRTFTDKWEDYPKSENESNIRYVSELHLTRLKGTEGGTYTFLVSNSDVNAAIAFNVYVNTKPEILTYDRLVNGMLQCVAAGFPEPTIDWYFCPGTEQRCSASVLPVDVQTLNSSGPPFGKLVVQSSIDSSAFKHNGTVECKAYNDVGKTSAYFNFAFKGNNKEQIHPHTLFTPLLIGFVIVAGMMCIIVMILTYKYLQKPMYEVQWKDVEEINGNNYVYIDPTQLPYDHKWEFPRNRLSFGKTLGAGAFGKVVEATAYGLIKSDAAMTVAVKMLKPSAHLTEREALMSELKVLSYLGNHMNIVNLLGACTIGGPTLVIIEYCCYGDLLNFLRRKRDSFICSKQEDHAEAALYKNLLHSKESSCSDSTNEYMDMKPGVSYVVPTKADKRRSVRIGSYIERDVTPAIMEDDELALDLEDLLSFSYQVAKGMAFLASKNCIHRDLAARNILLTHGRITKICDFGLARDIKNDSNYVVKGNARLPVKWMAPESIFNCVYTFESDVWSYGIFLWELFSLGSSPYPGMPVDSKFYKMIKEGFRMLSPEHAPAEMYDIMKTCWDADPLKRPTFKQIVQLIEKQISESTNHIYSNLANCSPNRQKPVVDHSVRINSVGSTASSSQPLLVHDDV
Serine/threonine-protein kinase TAO2 (Homo sapiens), sequence (Q9UL54 whole entry): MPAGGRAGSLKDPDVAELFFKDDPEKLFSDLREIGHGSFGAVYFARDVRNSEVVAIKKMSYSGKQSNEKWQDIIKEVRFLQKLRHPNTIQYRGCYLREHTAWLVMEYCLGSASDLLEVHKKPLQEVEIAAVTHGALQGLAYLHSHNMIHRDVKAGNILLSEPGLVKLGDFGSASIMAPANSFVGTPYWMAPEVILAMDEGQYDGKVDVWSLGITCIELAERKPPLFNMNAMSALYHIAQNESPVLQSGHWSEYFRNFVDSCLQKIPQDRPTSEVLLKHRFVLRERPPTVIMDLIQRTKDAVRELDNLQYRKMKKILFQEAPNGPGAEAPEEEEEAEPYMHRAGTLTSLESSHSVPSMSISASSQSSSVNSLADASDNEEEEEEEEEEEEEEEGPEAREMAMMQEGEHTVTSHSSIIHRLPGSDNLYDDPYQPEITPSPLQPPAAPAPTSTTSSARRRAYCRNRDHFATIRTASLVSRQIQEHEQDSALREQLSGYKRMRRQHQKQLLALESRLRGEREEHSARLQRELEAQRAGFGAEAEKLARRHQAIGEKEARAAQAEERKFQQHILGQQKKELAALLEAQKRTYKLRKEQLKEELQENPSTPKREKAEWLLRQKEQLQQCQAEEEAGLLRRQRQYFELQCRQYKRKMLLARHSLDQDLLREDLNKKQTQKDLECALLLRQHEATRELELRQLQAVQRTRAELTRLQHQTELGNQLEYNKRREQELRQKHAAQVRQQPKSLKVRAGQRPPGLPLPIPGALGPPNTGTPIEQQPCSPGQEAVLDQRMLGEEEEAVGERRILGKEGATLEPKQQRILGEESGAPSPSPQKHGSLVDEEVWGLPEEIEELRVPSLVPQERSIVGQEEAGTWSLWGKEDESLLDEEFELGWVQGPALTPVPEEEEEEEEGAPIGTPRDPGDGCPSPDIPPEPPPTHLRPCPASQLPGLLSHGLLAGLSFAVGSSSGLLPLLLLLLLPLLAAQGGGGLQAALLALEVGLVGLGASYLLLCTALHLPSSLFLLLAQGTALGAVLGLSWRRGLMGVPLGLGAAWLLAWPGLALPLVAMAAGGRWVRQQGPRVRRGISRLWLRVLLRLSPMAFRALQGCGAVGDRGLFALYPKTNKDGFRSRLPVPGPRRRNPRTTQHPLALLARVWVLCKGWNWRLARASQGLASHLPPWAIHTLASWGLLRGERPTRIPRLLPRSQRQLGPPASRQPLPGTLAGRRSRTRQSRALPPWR

CNCc1ccccc1-c1csc([C@H](C)Nc2nc(C)nc3cc(OC)c(OC)cc23)c1 [BAY-294]
inactive: residual activity [1] 90% | residual activity [2] 100% | residual activity [3] 87% | residual activity [4] 91% | residual activity [5] 100% | residual activity [6] 100% | residual activity [7] 97% | residual activity [8] 92% | residual activity [9] 100% | residual activity [10] 100% | residual activity [11] 100% | residual activity [12] 98% | residual activity [13] 90% | residual activity [14] 100% | residual activity [15] 83% | residual activity [16] 100% | residual activity [17] 100% | residual activity [18] 90% | residual activity [19] 93% | residual activity [20] 100% | residual activity [21] 52% | residual activity [22] 100% | residual activity [23] 87% | residual activity [24] 100% | residual activity [25] 100% | residual activity [26] 100% | residual activity [27] 83% | inhibition [28] -1.27% | residual activity [29] 100% | residual activity [30] 100% | residual activity [31] 100% | residual activity [32] 100% | residual activity [33] 100% | residual activity [34] 92% | residual activity [35] 100% | residual activity [36] 78% | residual activity [37] 100% | residual activity [38] 100% | residual activity [39] 100% | residual activity [40] 97% | residual activity [41] 98% | residual activity [42] 93% | residual activity [43] 100% | residual activity [44] 71%

CNCc1ccccc1-c1csc([C@@H](C)Nc2nc(C)nc3cc(OC)c(OC)cc23)c1 [BAY-293]
inactive: residual activity [1] 86% | residual activity [2] 80% | residual activity [3] 83% | residual activity [4] 83% | residual activity [5] 100% | residual activity [6] 100% | residual activity [7] 83% | residual activity [8] 88% | residual activity [9] 92% | residual activity [10] 100% | residual activity [11] 82% | residual activity [12] 97% | residual activity [13] 100% | residual activity [14] 87% | residual activity [15] 86% | residual activity [16] 88% | residual activity [17] 92% | residual activity [18] 76% | residual activity [19] 95% | residual activity [20] 73% | residual activity [21] 61% | residual activity [22] 98% | residual activity [23] 100% | residual activity [24] 91% | residual activity [25] 83% | residual activity [26] 79% | residual activity [27] 87% | inhibition [28] 0.89% | residual activity [29] 96% | residual activity [30] 100% | residual activity [31] 90% | residual activity [32] 100% | residual activity [33] 86% | residual activity [34] 75% | residual activity [35] 100% | residual activity [36] 90% | residual activity [37] 100% | residual activity [38] 56% | residual activity [39] 100% | residual activity [40] 99% | residual activity [41] 90% | residual activity [42] 78% | residual activity [43] 100% | residual activity [44] 69%
